Square brackets hold non-standard residues; d marks the D form. Peptide text beside a SMILES is read from it.
How the values were obtained:
[1] = system: skin of the malar surface of the face; experiment: Blinded split-face topical application of deltorphin cream: local tolerance (irritation, allergy); assay type: in vivo
Experimental: (§1) A test subject (body weight ˜71 kg) received an application of 10 μg deltorphin, constituted in an inert base, to the malar surface on the left side of the face extending from the periorbital region to the mandible. The inert base (without the deltorphin) was applied to the right side of the face but the subject was blind to which cream contained the deltorphin. The cream was applied twice daily, in the morning and night. After 3 weeks, the subject was observed.
(§2) A test subject (˜61 kg) received an application of 100 μg of deltorphin in an inert base to the malar surface on the right side, with an equal amount of inert base, but no active peptide, applied blindly to the left side of the face. The two creams were applied twice daily, morning and night, for three weeks prior to being observed.

[2] = system: summer-active ground squirrels; settings: administered to summer-active ground squirrels; cited from earlier work
[3] = system: isolated or transplanted organs including heart, lung and kidneys; settings: cited from earlier work
[4] = system: skin of the malar surface of the face; experiment: Blinded split-face topical application of deltorphin cream: skin appearance and wrinkles; assay type: in vivo
Experimental: as §1
A test subject (˜55 kg) received an application of 1 μg of deltorphin in an inert base to the malar surface of the right side of the face, with an identical inert cream applied to the left in a blinded fashion (the subject was unaware of which cream contained the active peptide). After three weeks of morning and evening application of the cream (no other topical agents were applied), the subject was scored for appearance.
as §2

[5] = Example 1: subject, 10 μg deltorphin in inert base, twice daily, 3 weeks
[6] = Example 3: subject, 100 μg deltorphin in inert base, twice daily, three weeks

**Q.** Which results are given for `CSCC[C@H](NC(=O)[C@H](CC(C)C)NC(=O)[C@H](Cc1cnc[nH]1)NC(=O)[C@H](Cc1ccccc1)NC(=O)[C@@H](CCSC)NC(=O)[C@@H](N)Cc1ccc(O)cc1)C(=O)N[C@@H](CC(=O)O)C(N)=O` [deltorphin, Tyr-D-Met-Phe-His-Leu-Met-Asp-NH2] (H-Y[dM]FHLMD-NH2)?
**A.** signs of irritation, redness, heat or swelling [1, 5]: no sign of any irritation, no redness, heat or swelling; eye irritation after inadvertent contact of the cream with the eye ([1]; Example 3: subject, 100 μg deltorphin cream, one occasion, subject's report): without any significant eye irritation or redness; signs of allergy, hypersensitivity or irritation (redness, swelling, heat, pruritus) [1, 6]: no signs of any allergy, hypersensitivity or irritation

**Q.** What does the source list for `CC(C)C[C@@H](NC(=O)[C@H](Cc1ccccc1)NC(=O)CNC(=O)[C@@H](C)NC(=O)[C@@H](N)Cc1ccc(O)cc1)C(=O)O` [DADLE, Tyr-D-Ala-Gly-Phe-D-Leu]?
**A.** induction of hibernation [2]: induces hibernation; viability and preservation of organs [3]: improves the viability and preservation

**Q.** With `CSCC[C@H](NC(=O)[C@H](CC(C)C)NC(=O)[C@H](Cc1c[nH]cn1)NC(=O)[C@H](Cc1ccccc1)NC(=O)[C@@H](CCSC)NC(=O)[C@@H](N)Cc1ccc(O)cc1)C(=O)N[C@@H](CC(=O)O)C(N)=O` [deltorphin, Tyr-D-Met-Phe-His-Leu-Met-Asp-NH2] (H-Y[dM]FHLMD-NH2) as the compound, how does the “appearance of treated side of the face versus inert-base side” value ([4]; Example 1: subject, 10 μg deltorphin in inert base, left side, twice daily, 3 weeks) read?
**A.** Its value is “noticeable improved appearance”.

**Q.** And the “wrinkles (fine and moderate)” value [4, 5]?
**A.** The value was “appeared diminished”.

**Q.** What about the “wrinkles, particularly in the periorbital region” value ([4]; Example 2: subject, 1 μg deltorphin in inert base, morning and evening, three weeks) of the same compound?
**A.** The value was “marked reduction in wrinkles”.

**Q.** What about the “appearance of treated side of the face versus inert-base side” value ([4]; Example 2: subject, 1 μg deltorphin in inert base, right side, morning and evening, three weeks) of the same compound?
**A.** The value was “noticeable difference was apparent”.

**Q.** And the “appearance of treated side of the face versus inert-base side” value ([4]; Example 3: subject, 100 μg deltorphin in inert base, right side, twice daily, three weeks)?
**A.** Its value is “significant and visible improvements”.

**Q.** What about the “wrinkles (fine and deep)” value [4, 6] of the same compound?
**A.** Its value is “readily notable improvements and diminishment in wrinkles”.

— patent US20100221200A1, “COMPOSITIONS AND METHODS FOR SKIN CARE” (THE OHIO STATE UNIVERSITY RESEARCH FOUNDATION, priority 2007, published 2010)
